Laboratory results taken from patent US20110245190A1, “METHOD FOR IMPROVING POST SURGERY VISUAL ACUITY OUTCOME WITH AZITHROMYCIN” (priority 2009, published 2011).

Tested on: patients with contact lens-related dry eye disease (CLDE)
Test: Study of azithromycin 1% ophthalmic solution vs rewetting drops over four weeks in contact lens-related dry eye disease (Example 2)
Assay type: in vivo, human
Text: The objective of this study is to compare the efficacy of study drug, AZASITE® (azithromycin ophthalmic solution) 1%, versus rewetting drops (Visine for Contacts™) over a four week treatment period in patients with contact lens-related dry eye disease (CLDE).
Subjects are 18 years of age or older. Subjects have a positive diagnosis of CLDE based on their responses to the Contact Lens Dry Eye Questionnaire (CLDEQ, Nichols et al, Cornea 21:469-75 (2002)) and a score of ≧2, (i.e., moderate severity on a 0-4 scale, where 0=no ocular dryness and 4=very severe ocular dryness) on a self-reported assessment of ocular dryness at the screening Visit. A total of 50 subjects are enrolled in the study.
Subjects were asked to rate their level of ocular dryness on a 0-4 scale. Tear osmolarity was then assessed for each eye using the TearLab Osmolarity System®. Subjects were then instructed to remove their contact lenses and slit-lamp biomicroscopy and external eye exams were performed. Fluorescein corneal staining was then performed on each eye (5 μl of 2% fluorescein applied to the ocular surface) and graded according to National Eye Institute (NEI) criteria.
Eligible subjects were then randomized to receive either azithromycin 1% ophthalmic solution (AzaSite®), or rewetting drops (Visine for Contacts™) in a 1:1 ratio and they were not masked as to the treatment assignment. Subjects randomized to azithromcyin 1% were instructed to administer one drop to each eye BID for the first two days and then one drop QD for days 3-29. Subjects randomized to rewetting drops were instructed to administer one to two drops QID throughout the 29 day treatment period. The first dose of study medication was self-administered at the clinic once dosing instructions were provided. […]
Concomitant medication usage was recorded, an AE query performed, study medication and diary cards were collected. Subjects underwent habitual HCVA and LCVA assessment, completed the CLDEQ, and had tear osmolarity readings measured prior to removing their contact lenses. […]

With `CC[C@H]1OC(=O)[C@H](C)[C@@H](O[C@H]2C[C@@](C)(OC)[C@@H](O)[C@H](C)O2)[C@H](C)[C@@H](O[C@@H]2O[C@H](C)C[C@H](N(C)C)[C@H]2O)[C@](C)(O)C[C@@H](C)CN(C)[C@H](C)[C@@H](O)[C@]1(C)O` [azithromycin] the “mean ocular dryness scores, AM assessment” value (FIG. 2, prior to instilling study medication) was “lower”, the “mean ocular dryness scores, PM assessment” value (FIG. 3, prior to lens removal) was “lower” and the “mean daily duration of comfortable contact lens wear time” value (each of the weekly endpoints (Weeks 1-4), FIG. 1) was “longer”.
